Columns and labels:
Type in all cases: cell-based
[1] = tested on: white spruce somatic embryos; experiment: Lipid (TL, TAG) content and fatty acid composition of somatic embryos; settings: 7.5% PEG, 8 weeks; for Fatty acid composition of TAG (%) 18:2^b: FA col 7/9; for Fatty acid composition of TAG (%) ΣC-20, 22^c: FA col 9/9
Description: Experiments were set up to observe the effects of different culture conditions on somatic embryo lipid biosynthesis. […] Sigma, St Louis, USA). […] Somatic embryos were maintained on these media for 4 weeks in the dark prior to lipid analysis. […] The lipid contents of immature somatic embryos from suspension culture were also determined. Investigations were conducted to observe the effects of different ABA concentrations, in the presence of PEG, on lipid biosynthesis. […] Matured somatic embryos were transferred on their filter-paper supports to unsealed petri dishes which were then placed within the 81% r.h. desiccator. Total secondary desiccation treatment time was 2 weeks. […] Results were compared to those of somatic embryos matured under the same conditions but not further desiccated. The whole white spruce seeds, isolated zygotic embryos, somatic embryos from the various treatments, and regenerated plantlets and zygotic seedlings were counted, blotted dry, and fresh weights determined. The samples were then placed in an oven at 80° C. for 24 h and dry weights recorded. Lipids were extracted from fresh tissues by the hexane/isopropane method of Hara and Radin (1978), after first placing the samples in boiling isopropane for 10 min. TAGs were separated from total lipid extracts by thin layer chromatography using […] 60 plates (Mandel Scientific Co., Toronto, Canada). […] TAGs were identified using authentic standards and scraped from the plates using a razor blade. Fatty acid methyl esters ([…] prepared from TAGs and total lipid extracts, as previously described (Pomeroy et al. 1991). […] Each lipid extract sample was divided into 2-3 replicates for analysis, and experiments were repeated three times. Results shown are means of one experiment.

[2] = tested on: white spruce somatic embryos; experiment: Molecular size threshold of solutes for promoting maturation; settings: 20 μM ABA; for Mature embryos per replicate (± SE): solute 7.5% added to 3% sucrose base, 9 weeks; for recovery of mature embryos: solute at 2.5 and 5% (w/v), 3% sucrose base
Description: In order to determine the effective molecular weight and size range of solutes that promote the maturation of immature white spruce somatic embryos, they were matured in half-strength LP maturation medium containing a range of different solutes of differing molecular weight. Five replicates were prepared per treatment, and treatments were repeated twice. […] The treatment time was 9 weeks. […] The somatic embryos remained wet throughout the maturation treatment which led to poorly formed embryos at low frequency. […] For all treatments, only normal looking cotyledonary stage opaque white embryos were scored and used for lipid analyses. Levels of lipid triacylglycerols (TAGs) were analyzed as described later and results provided are means of two replicates.

[3] = tested on: white spruce somatic embryos; experiment: Somatic embryo maturation with PEG-4000 (maturation frequency); settings: preliminary experiments
Description: Maturation of somatic embryos was carried out using methods modified from Attree et al. (1990). Suspension cultured somatic embryos were washed and resuspended (20% w/v) in half-strength PGR-free BM containing 3% sucrose, to remove the previous PGRs, then 0.75 ml aliquots were pipetted onto filter paper supports (Whatman no. 2) on the surface of maturation medium. The supports facilitated subsequent transfers to fresh media. To determine the mean number of somatic embryos plated, 10 μl samples of the 20% suspension were stained with acetocarmine (B.D.H.) and counted (repeated 15 times). The plated somatic embryos were maintained on the maturation medium for 4 weeks in the dark. To test the effect of increased osmoticum, the following concentrations of PEG-4000 (Fluka AG) were included in the maturation medium; 0, 2.5, 5.0, 7.5 and 10% (w/v) (25 replicates per treatment). Maturation frequencies per treatment were calculated as the percent mean number of somatic embryos that matured to normal-looking cotyledonary embryos. Maturation frequency results are shown in FIG. 1 (±confidence limits, P=0.05)
The application of PEG-4000 in the presence of 16 μM ABA for 28 d promoted the maturation of white spruce somatic embryos (FIG. 1). The mean number of immature somatic embryos plated per replicate was 560, and maturation results are based upon a total of 4087 mature embryos recovered. […]

[4] = ABA 12 μM, desiccated (D) 2 weeks 81% r.h.
[5] = ABA 16 μM, desiccated (D) 2 weeks 81% r.h.
[6] = ABA 24 μM, desiccated (D) 2 weeks 81% r.h.
[7] = ABA 32 μM, desiccated (D) 2 weeks 81% r.h.

CC1=CC(=O)CC(C)(C)C1(O)/C=C/C(C)=C\C(=O)O (racemic) [ABA, abscisic acid]
TAG % d wt [1, 4]: 26 % d wt
TAG μg (embryo)^−1 [1, 4]: 186.6 μg (embryo)^−1
TAG/TL % [1, 4]: 85%
TL % d wt [1, 4]: 31 % d wt
TL μg (embryo)^−1 [1, 4]: 220 μg (embryo)^−1
TAG % d wt ([1]; ABA 12 μM, hydrated (H)): 14 % d wt
TAG μg (embryo)^−1 ([1]; ABA 12 μM, hydrated (H)): 116 μg (embryo)^−1
TAG/TL % ([1]; ABA 12 μM, hydrated (H)): 79%
TL % d wt ([1]; ABA 12 μM, hydrated (H)): 18 % d wt
TL μg (embryo)^−1 ([1]; ABA 12 μM, hydrated (H)): 146 μg (embryo)^−1
TAG % d wt [1, 5]: 28 % d wt
TAG μg (embryo)^−1 [1, 5]: 214 μg (embryo)^−1
TAG/TL % [1, 5]: 82%
TL % d wt [1, 5]: 35 % d wt
TL μg (embryo)^−1 [1, 5]: 260 μg (embryo)^−1
TAG % d wt ([1]; ABA 16 μM, hydrated (H)): 17 % d wt
TAG μg (embryo)^−1 ([1]; ABA 16 μM, hydrated (H)): 143 μg (embryo)^−1
TAG/TL % ([1]; ABA 16 μM, hydrated (H)): 80%
TL % d wt ([1]; ABA 16 μM, hydrated (H)): 22 % d wt
TL μg (embryo)^−1 ([1]; ABA 16 μM, hydrated (H)): 179 μg (embryo)^−1
TAG % d wt [1, 6]: 30 % d wt
TAG μg (embryo)^−1 [1, 6]: 186.2 μg (embryo)^−1
TAG/TL % [1, 6]: 80%
TL % d wt [1, 6]: 37 % d wt
TL μg (embryo)^−1 [1, 6]: 232.5 μg (embryo)^−1
TAG % d wt ([1]; ABA 24 μM, hydrated (H)): 20 % d wt
TAG μg (embryo)^−1 ([1]; ABA 24 μM, hydrated (H)): 131 μg (embryo)^−1
TAG/TL % ([1]; ABA 24 μM, hydrated (H)): 77%
TL % d wt ([1]; ABA 24 μM, hydrated (H)): 26 % d wt
TL μg (embryo)^−1 ([1]; ABA 24 μM, hydrated (H)): 170 μg (embryo)^−1
TAG % d wt [1, 7]: 20 % d wt
TAG μg (embryo)^−1 [1, 7]: 170 μg (embryo)^−1
TAG/TL % [1, 7]: 64%
TL % d wt [1, 7]: 31 % d wt
TL μg (embryo)^−1 [1, 7]: 264 μg (embryo)^−1
TAG % d wt ([1]; ABA 32 μM, hydrated (H)): 17 % d wt
TAG μg (embryo)^−1 ([1]; ABA 32 μM, hydrated (H)): 130 μg (embryo)^−1
TAG/TL % ([1]; ABA 32 μM, hydrated (H)): 67%
TL % d wt ([1]; ABA 32 μM, hydrated (H)): 26 % d wt
TL μg (embryo)^−1 ([1]; ABA 32 μM, hydrated (H)): 193 μg (embryo)^−1
Fatty acid composition of TAG (%) 18:2^b ([1]; ABA 12 μM, D (81% r.h.)): 15.4%
Fatty acid composition of TAG (%) 18:2^b ([1]; ABA 12 μM, H): 13.2%
Fatty acid composition of TAG (%) 18:2^b ([1]; ABA 16 μM, D (81% r.h.)): 15.4%
Fatty acid composition of TAG (%) 18:2^b ([1]; ABA 16 μM, H): 13.5%
Fatty acid composition of TAG (%) 18:2^b ([1]; ABA 24 μM, D (81% r.h.)): 15%
Fatty acid composition of TAG (%) 18:2^b ([1]; ABA 24 μM, H): 14.7%
Fatty acid composition of TAG (%) 18:2^b ([1]; ABA 32 μM, D (81% r.h.)): 14.9%
Fatty acid composition of TAG (%) 18:2^b ([1]; ABA 32 μM, H): 14.6%
Fatty acid composition of TAG (%) ΣC-20, 22^c ([1]; ABA 12 μM, D (81% r.h.)): 1.4%
Fatty acid composition of TAG (%) ΣC-20, 22^c ([1]; ABA 12 μM, H): 1.4%
Fatty acid composition of TAG (%) ΣC-20, 22^c ([1]; ABA 16 μM, D (81% r.h.)): 1.5%
Fatty acid composition of TAG (%) ΣC-20, 22^c ([1]; ABA 16 μM, H): 1%
Fatty acid composition of TAG (%) ΣC-20, 22^c ([1]; ABA 24 μM, D (81% r.h.)): 1.5%
Fatty acid composition of TAG (%) ΣC-20, 22^c ([1]; ABA 24 μM, H): 1.2%
Fatty acid composition of TAG (%) ΣC-20, 22^c ([1]; ABA 32 μM, D (81% r.h.)): 2.5%
Fatty acid composition of TAG (%) ΣC-20, 22^c ([1]; ABA 32 μM, H): 1.6%

OC[C@@H](O)[C@@H](O)[C@H](O)[C@H](O)CO [Mannitol, mannitol]
Mature embryos per replicate (± SE) [2]: 0
recovery of mature embryos [2]: did not result in recovery of any mature embryos

OC[C@H]1O[C@@](CO)(O[C@H]2O[C@H](CO)[C@@H](O)[C@H](O)[C@H]2O)[C@@H](O)[C@@H]1O [Sucrose, sucrose]
Mature embryos per replicate (± SE) [2]: 0
recovery of mature embryos [2]: did not result in recovery of any mature embryos
maturation frequencies, visual comparison ([3]; 6% sucrose): lower maturation frequencies
growth, visual comparison ([3]; 9% sucrose): no growth
